Here are results for 14 molecules from the NIST ThermoML archive (doi:10.1016/j.fluid.2010.02.022).

The conditions of this series: 101 kPa, Liquid, Pendant drop method.

Numbers after ± are expanded uncertainties.

Consider `CCCC[n+]1ccn(C)c1.O=S(=O)([N-]S(=O)(=O)C(F)(F)F)C(F)(F)F` + CCCCCCCC, for which the interfacial tension runs as follows: (293 K) 8.78 ± 0.11 mN/m; (298 K) 8.6 ± 0.11 mN/m; (303 K) 8.43 ± 0.11 mN/m; (308 K) 8.25 ± 0.11 mN/m; (313 K) 8.1 ± 0.11 mN/m.
On to `CCCCCC[n+]1ccn(C)c1.O=S(=O)([N-]S(=O)(=O)C(F)(F)F)C(F)(F)F` + CCCCCCCC, for which the interfacial tension by setting is: (293 K) 5.79 ± 0.11 mN/m; (298 K) 5.66 ± 0.11 mN/m; (303 K) 5.5 ± 0.11 mN/m; (308 K) 5.36 ± 0.11 mN/m; (313 K) 5.24 ± 0.11 mN/m.
As to `CCCCCCCCn1cc[n+](C)c1.O=S(=O)([N-]S(=O)(=O)C(F)(F)F)C(F)(F)F` + O, the interfacial tension runs as follows: (293 K) 16.47 ± 0.14 mN/m; (298 K) 15.79 ± 0.13 mN/m; (303 K) 15.67 ± 0.13 mN/m; (308 K) 15.37 ± 0.13 mN/m; (313 K) 15.06 ± 0.13 mN/m; (318 K) 14.61 ± 0.13 mN/m. Moreover, the interfacial tension (323 K) turned out to be 14.44 ± 0.13 mN/m.
As to `CCCCn1cc[n+](C)c1.O=C([O-])C(F)(F)F` [1-butyl-3-methylimidazolium trifluoroacetate] + CCCCCCCC, the interfacial tension came to 9.38 ± 0.12 mN/m (293 K); 9.29 ± 0.12 mN/m (298 K); 9.21 ± 0.12 mN/m (303 K); 9.11 ± 0.12 mN/m (308 K); 8.98 ± 0.11 mN/m (313 K).
Take `CCCCn1cc[n+](C)c1.O=C([O-])C(F)(F)F` [1-butyl-3-methylimidazolium trifluoroacetate] + CCCCCCCCCC: the interfacial tension by setting is: (293 K) 10.52 ± 0.13 mN/m; (298 K) 10.41 ± 0.13 mN/m; (303 K) 10.29 ± 0.13 mN/m; (308 K) 10.16 ± 0.13 mN/m; (313 K) 10.04 ± 0.13 mN/m.
As to `CCn1cc[n+](C)c1.O=S(=O)([N-]S(=O)(=O)C(F)(F)F)C(F)(F)F` + O, the interfacial tension runs as follows: (293 K) 10.04 ± 0.11 mN/m; (298 K) 9.85 ± 0.11 mN/m; (303 K) 9.51 ± 0.11 mN/m; (308 K) 9.29 ± 0.11 mN/m; (313 K) 9.05 ± 0.11 mN/m; (318 K) 8.79 ± 0.11 mN/m. Besides, the interfacial tension (323 K) is reported as 8.61 ± 0.11 mN/m.
With `CCCCn1cc[n+](C)c1.O=C([O-])C(F)(F)F` [1-butyl-3-methylimidazolium trifluoroacetate] + CCCCCC, the interfacial tension (293 K) came to 8.74 ± 0.18 mN/m; the interfacial tension (298 K) is 8.58 ± 0.18 mN/m; the interfacial tension (303 K) is given as 8.43 ± 0.18 mN/m; the interfacial tension (308 K) turned out to be 8.29 ± 0.18 mN/m; the interfacial tension (313 K) is listed as 8.16 ± 0.17 mN/m.
For `CCCCCCCCCCn1cc[n+](C)c1.O=S(=O)([N-]S(=O)(=O)C(F)(F)F)C(F)(F)F` + O, the interfacial tension is, setting by setting: (293 K) 17.71 ± 0.14 mN/m; (298 K) 17.41 ± 0.14 mN/m; (303 K) 17.09 ± 0.14 mN/m; (308 K) 16.75 ± 0.13 mN/m; (313 K) 16.41 ± 0.13 mN/m; (318 K) 16.05 ± 0.13 mN/m. Also, the interfacial tension (323 K) turned out to be 15.66 ± 0.13 mN/m.
`Cn1cc[n+](C)c1.O=S(=O)([N-]S(=O)(=O)C(F)(F)F)C(F)(F)F` [1,3-dimethylimidazolium bis((trifluoromethyl)sulfonyl)amide] + O: the interfacial tension runs as follows: (298 K) 8.05 ± 0.11 mN/m; (303 K) 7.83 ± 0.11 mN/m; (308 K) 7.49 ± 0.11 mN/m; (313 K) 7.14 ± 0.11 mN/m; (318 K) 6.82 ± 0.11 mN/m; (323 K) 6.52 ± 0.11 mN/m.
Regarding `CCCCCCCCn1cc[n+](C)c1.O=S(=O)([N-]S(=O)(=O)C(F)(F)F)C(F)(F)F` + CCCCCCCCCC, the interfacial tension is, setting by setting: (293 K) 3.98 ± 0.1 mN/m; (298 K) 3.88 ± 0.1 mN/m; (303 K) 3.76 ± 0.1 mN/m; (308 K) 3.63 ± 0.1 mN/m; (313 K) 3.51 ± 0.1 mN/m.
Turning to `CCCC[n+]1ccn(C)c1.O=S(=O)([N-]S(=O)(=O)C(F)(F)F)C(F)(F)F` + CCCCCC, the interfacial tension by setting is: (293 K) 7.78 ± 0.17 mN/m; (298 K) 7.64 ± 0.17 mN/m; (303 K) 7.5 ± 0.17 mN/m; (308 K) 7.37 ± 0.16 mN/m; (313 K) 7.24 ± 0.16 mN/m.
On to `CCCCn1cc[n+](C)c1.O=S(=O)([O-])C(F)(F)F` [1-butyl-3-methylimidazolium trifluoromethanesulfonate] + CCCCCC, for which the interfacial tension came out at 9.07 ± 0.19 mN/m (293 K); 8.9 ± 0.19 mN/m (298 K); 8.74 ± 0.18 mN/m (303 K); 8.58 ± 0.18 mN/m (308 K); 8.43 ± 0.18 mN/m (313 K).
The like results for `CCn1cc[n+](C)c1.O=S(=O)([N-]S(=O)(=O)C(F)(F)F)C(F)(F)F` + CCCCCCCCCC were, in that order, 12.87 ± 0.14 mN/m, 12.75 ± 0.14 mN/m, 12.64 ± 0.14 mN/m, 12.52 ± 0.14 mN/m and 12.41 ± 0.14 mN/m.
With `CCCC[n+]1ccn(C)c1.O=S(=O)([N-]S(=O)(=O)C(F)(F)F)C(F)(F)F` + O, the interfacial tension by setting is: (293 K) 13.69 ± 0.12 mN/m; (298 K) 13.2 ± 0.12 mN/m; (303 K) 12.57 ± 0.12 mN/m; (308 K) 12.31 ± 0.12 mN/m; (313 K) 11.62 ± 0.12 mN/m; (318 K) 11.4 ± 0.12 mN/m. The interfacial tension (323 K) is recorded as 11.07 ± 0.12 mN/m.
